# According to patent US20090117607A1, “Methods For Differential Detection Of Hypoxic Tissue From A Tissue Sample Of A Mammalian Subject” (priority 2007, published 2009):
# Where “and” joins values, the source holds several entries; their conditions need not be identical. Equal entries are not always repeated. Where two headings read alike, the source gives them in different places.
# Legend:
# [1] = system: head and neck squamous cell carcinoma (HNSCC) tumor tissue; test: Quantitative fluorescence immunohistochemical analysis of EF5 binding in HNSCC tumor sections of patients; type: in vivo, human; design: key to Maximum CF95 Mean: % of CRB (maximal EF3 binding), scale 0-100%
# Method: EF5 Administration. The National Cancer Institute, Division of Cancer Treatment supplied EF5 in 100 mL vials containing an aqueous solution of 3 mg/mL EF5 also containing 5% dextrose and 2.4% ethanol. This EF5 solution was administered through a peripheral IV catheter, 24-48 hours before surgery at a rate no greater than 350 mL/hr and to a total dose of 9-21 mg/kg. Blood samples for drug levels were obtained before and 1 hour after the completion of drug administration, and at the time of surgery. Calculation of drug time/dose concentration (area under the curve, AUC) allowed the absolute EF5 tissue binding level to be corrected for variations in drug dose and exposure time between patients. Koch, et al., Cancer Chemother. Pharmacol., 2001, 48, 177-187.
# Tissue Acquisition and processing for EF5 Binding. 24-48 hours after completion of drug administration, tumors were resected or biopsied and placed in sterile, iced EXCELL 610 medium (JRH Biosciences, Lenexa, Kans.). In collaboration with the pathologist, tissue samples deemed unnecessary for clinical diagnosis were taken to the lab for processing and analysis.
# IHC staining methods and quantitative fluorescence microscopy of EF5 in in situ tumor sections and EF3 in tissue cubes for cube reference binding (CRB) were performed as reported previously. Evans, et al., Cancer Res., 2004, 64, 1886-1892. CRB determination is an in vitro technique where tissue cubes are incubated in 200 μM EF3, a sister drug of EF5, under controlled hypoxic conditions for 3 hours. The goal of this procedure was to determine the maximum level of EF3 binding possible for each patient's tumor. This technique allowed normalization of the in situ EF5 binding to each tumor's maximum binding value after correction for the AUC. Koch, et al., Cancer Chemother. Pharmacol., 2001, 48, 177-187. These values were used to calculate the maximum and average ‘% CRB’ value for each tumor, as described previously and briefly below. Evans, et al., Cancer Res., 2000, 60, 2018-2024. Thus, EF5 binding values for each tumor tissue are reported on a scale of 0-100% allowing for comparisons within and between tumors.
# Quantitative Image analysis. The quantitative analysis of tumor sections stained for EF3/EF5 has been previously described. Evans, J. Invest. Derm., 2006; Evans, et al., Int. J. Radiat. Oncol., Biol., Phys., 2001, 49, 587-596; Busch, et al., Adv Exp Med. Biol., 2003, 510, 37-43. Briefly, tissue sections were counterstained with Hoechst 33342 to identify the location of intact nuclei. These images were used to create bitmaps in order to generate binary masks of viable tissue regions. Masked regions of each section were analyzed for EF5-dependent immunofluorescence intensity using routines written in MatLab (The MathWorks, Inc., Natick, Mass.). EF5 intensity values of these regions were corrected for tissue section thickness, camera exposure time, relative lamp intensity, EF5 drug exposure (AUC) and CRB. Evans, et al., Cancer Res., 2000, 60, 2018-2024; Evans, et al., Int. J. Radiat. Oncol., Biol., Phys., 2001, 49, 587-596; Evans, et al, Clin. Cancer Res., 2004, 10, 8177-8184; Koch, et al., Cancer Chemother. Pharmacol., 2001, 48, 177-187. Data were then summarized by generating histograms of all positive pixels in the masked image, which were then converted into a cumulative frequency plot. The number of pixels at or below a given binding level can be identified from this plot. For example, CF95=20% would mean that 95% of the EF5 values in the image were at or below 20% of CRB. Terms to describe tissue oxygenation based on EF5 studies have been approximated by data from in vitro studies (Table 1). Koch, Method Enzymol., 2002, 352, 3-31. Normoxic conditions correspond to a CF95≈1%; for modestly/mildly hypoxic conditions, CF95≈3%; for moderately hypoxic conditions, CF95≈10%; for severely hypoxic conditions, CF95≈30%, and for anoxia, the CF95100%. The pO2 corresponding to these descriptive terms is found in Table 1. […]
# [2] = EF5-related toxicity in patients after IV EF5 administration; type: in vivo, human; details: 22 HNSCC patients
# Text: Human Subjects. The Institutional Review Board of the University of Pennsylvania Clinical Trials and Scientific Monitoring Committee at the University of Pennsylvania Abramson Cancer Center and the Cancer Therapeutics Evaluation Program of the National Cancer Institute approved this prospective trial of EF5. All patients signed an approved consent form for both the study and for privacy (HIPPA). Patients of all ethnic and gender groups were included. Eligible patients were those undergoing resection or biopsy of a HNSCC as clinically indicated. Exclusion criteria included patients with a history of grade III or IV peripheral neuropathy, pregnant or nursing patients and patients <18 years old. Coleman, et al., Int. J. Radiat. Oncol., Biol., Phys., 1990, 18, 389-393. EF5 Administration. The National Cancer Institute, Division of Cancer Treatment supplied EF5 in 100 mL vials containing an aqueous solution of 3 mg/mL EF5 also containing 5% dextrose and 2.4% ethanol. This EF5 solution was administered through a peripheral IV catheter, 24-48 hours before surgery at a rate no greater than 350 mL/hr and to a total dose of 9-21 mg/kg. Blood samples for drug levels were obtained before and 1 hour after the completion of drug administration, and at the time of surgery. […]
# hypoxic cells = details: cited from earlier work
# HNSCC = details: meta-analysis of trials; cited from earlier work
# HNSCC hypoxic tumors = details: 45 HNSCC patients, adjuvant cisplatin with tirapazamine; cited from earlier work
smiles,measurement,setting,value
O=C(Cn1ccnc1[N+](=O)[O-])NCC(F)(F)C(F)(F)F [EF5],Maximum CF95 Mean,[1]; Age <60 y (11),25.66
same,Maximum CF95 Mean,[1]; Age ≧60 y (11),21.11
same,Maximum CF95 Mean,[1]; All patients (22),23.38
same,Maximum CF95 Mean,[1]; Differentiation: Moderate (10),20.00
same,Maximum CF95 Mean,"[1]; Differentiation: Moderate to poor, poor (7)",35.87
same,Maximum CF95 Mean,"[1]; Differentiation: Well, well to moderate (5)",12.65
same,Maximum CF95 Mean,[1]; Gender: Men (18),26.74
same,Maximum CF95 Mean,[1]; Gender: Women (4),8.27
same,Maximum CF95 Mean,[1]; Nodal stage N0-N1 (15),17.96
same,Maximum CF95 Mean,[1]; Nodal stage N2-N3 (7),35.00
same,EF5 binding average CF95,"[1]; individual patient tumor, average of all tissue sections, biopsy 24-48 h after EF5 IV 9-21 mg/kg",0.8 % CRB and 0.9 % CRB and 1.9 % CRB and 1.1 % CRB and 4.2 % CRB and 5.6 % CRB and 6.2 % CRB and 6.1 % CRB and 6.4 % CRB and 10.8 % CRB and 16.0 % CRB and 19.6 % CRB and 18.7 % CRB and 12.5 % CRB and 26.0 % CRB and 14.2 % CRB and 23.0 % CRB and 36.9 % CRB and 38.5 % CRB and 34.5 % CRB and 0.4 % CRB and 1.3 % CRB
same,EF5 binding maximum CF95,"[1]; individual patient tumor, brightest binding of all tissue sections, biopsy 24-48 h after EF5 IV 9-21 mg/kg",1.4 % CRB (2×) and 2.8 % CRB and 6.0 % CRB and 7.9 % CRB and 8.2 % CRB and 8.9 % CRB and 10.0 % CRB and 16.4 % CRB and 17.8 % CRB and 19.4 % CRB and 23.1 % CRB and 25.4 % CRB and 30.7 % CRB and 35.8 % CRB and 36.0 % CRB and 61.7 % CRB and 66.0 % CRB and 66.5 % CRB and 66.6 % CRB and 1.2 % CRB and 1.3 % CRB
same,EF5-related grade 1 and 2 toxicity,[2],One patient each experienced EF5-related grade 1 and 2 toxicity
same,EF5-related grade 3 or 4 toxicity,[2]; 30 days following EF5 administration,no episodes of EF5-related grade 3 or 4 toxicity
same,Maximum EF5 binding (%),"hypoxic cells; Anoxia, pO2 0%",100%
same,Maximum EF5 binding (%),"hypoxic cells; Moderate hypoxia, pO2 0.5% (3.8 mm Hg)",10%
same,Maximum EF5 binding (%),"hypoxic cells; Modest (mild) hypoxia, pO2 2.5% (19 mm Hg)",3%
same,Maximum EF5 binding (%),"hypoxic cells; Normoxia, pO2 10% (76 mm Hg)",1%
same,Maximum EF5 binding (%),"hypoxic cells; Severe hypoxia, pO2 0.1% (0.76 mm Hg)",30%
COCC(O)Cn1ccnc1[N+](=O)[O-] (stereo not drawn) [misonidazole],Effectiveness as hypoxic cell sensitizer,HNSCC,could be identified in a subset of patients
Nc1n[n+]([O-])c2ccccc2[n+]1[O-] [tirapazamine],Outcome (local-regional failure) of patients with hypoxic tumors,HNSCC hypoxic tumors,did as well as those with oxic tumors
